Assay: static efficiency test of sulfate scale inhibition
Conditions: 90° C., one hour after mixing anion and cation brine 1:1 (v/v), Ba2+ in solution; for inhibition efficiency, Brine A: SI dosage 1 ppm; for inhibition efficiency, Brine B: SI dosage 7.5 ppm; for inhibition efficiency, Brine C: SI dosage 5 ppm; for inhibition efficiency, Brine D: SI dosage 30 ppm
Procedure: Anion brine and cation brines A, B, C, and D were prepared according to Table 1. The preheated anion brine and cation brine were mixed at 1:1 (v/v) ratio to achieve the targeted concentration. Briefly. In the blank test, no scale inhibitor (SI) was added, but a known amount of various SI was added to other test bottles to understand the performance of various SIs. In the scale inhibition tests, inhibition performance or inhibition efficiency at 90° C., especially for barite inhibition at one hour after mixing of anion and cation brine with and without presence of SI was determined using the following equation:
[formula] • At where: • Ca is the concentration (mg/L) of Ba^2+ in solution after the one-hour test with scale inhibitor. • Cb is the concentration (mg/L) of Ba^2+ in solution in the blank after the one-hour test (without scale inhibitor). • Co is the concentration (mg/L) of the resulting Ba^2+ in synthetic water.
The SI dosages in Brine A, B, C and […] was 1, 7.5, 5, and 30 ppm, respectively.

SMILES	inhibition efficiency, Brine A [%]	inhibition efficiency, Brine B [%]	inhibition efficiency, Brine C [%]	inhibition efficiency, Brine D [%]
O=P(O)(O)CN(CCN(CP(=O)(O)O)CP(=O)(O)O)CCN(CP(=O)(O)O)CP(=O)(O)O [DTPMP, diethylenetriamine penta(methylene phosphonic acid), reference compound]	94	77	100	24
O=P(O)(O)CN(CC(O)COCC(O)C(OCC(O)CN(CP(=O)(O)O)CP(=O)(O)O)C(O)C(COCC(O)CN(CP(=O)(O)O)CP(=O)(O)O)OCC(O)CN(CP(=O)(O)O)CP(=O)(O)O)CP(=O)(O)O (stereo not shown) [Example 1, 1,3,5,6-Tetrakis{3-[bis(phosphonomethyl)amino]-2-hydroxypropoxy}-2,4-hexandiol]	57	88	67	42
O=P(O)(O)CN(CCNCC(O)COCC(O)C(OCC(O)CNCCN(CP(=O)(O)O)CP(=O)(O)O)C(O)C(COCC(O)CNCCN(CP(=O)(O)O)CP(=O)(O)O)OCC(O)CNCCN(CP(=O)(O)O)CP(=O)(O)O)CP(=O)(O)O (stereo not shown) [Example 2, 12,14-bis(3-((2-(bis(phosphonomethyl)amino)ethyl)amino)-2-hydroxypropoxy)-2,23-(bis(phosphonomethyl)amino)-9,16-dioxa-2,5,20,23-tetraazatetracosane-7,11,13,18-tetraol]	100	100	84	83
O=P(O)(O)CN(CCO)CC(O)COCC(O)C(OCC(O)CN(CCO)CP(=O)(O)O)C(O)C(COCC(O)CN(CCO)CP(=O)(O)O)OCC(O)CN(CCO)CP(=O)(O)O (stereo not shown) [Example 3, 10,12-bis(2-hydroxy-3-((2-hydroxyethyl)(phosphonomethyl)amino)propoxy)-3,18-bis(phosphonomethyl)-7,14-dioxa-3,18-diazaicosane-1,5,9,11,16,20-hexaol]	48	36	71	5
CN(CC(O)COCC(O)C(OCC(O)CN(C)CP(=O)(O)O)C(O)C(COCC(O)CN(C)CP(=O)(O)O)OCC(O)CN(C)CP(=O)(O)O)CP(=O)(O)O (stereo not shown) [Example 4]	23	7	5	2
O=P(O)(O)CN(CC(O)COCC(CO)OCC(O)CN(CP(=O)(O)O)CP(=O)(O)O)CP(=O)(O)O (stereo not shown) [Example 5]	42	86	86	42
O=P(O)(O)CN(CC(O)COCCCCOCC(O)CN(CP(=O)(O)O)CP(=O)(O)O)CP(=O)(O)O (stereo not shown) [Example 6, 3,3-(butane-1,4-diylbis(oxy))bis(1-(bis(phosphonomethyl))propan-2-ol)]	47	63	98	6

Source: US20260234464A1, “POLYALKYL PHOSPHONATED POLYOL ETHER BASED SCALE INHIBITORS” (ChampionX LLC, priority 2023, published 2026)
